The record followed here is article PMC6732734 (Heliyon, 2019).

The nature of this series: In vivo gentamicin release / pharmacokinetics after tail vein injection. Particulars: rat. Set-up: species or system Wistar rats.

Regarding `CNC(C)C1CCC(N)C(OC2C(N)CC(N)C(OC3OCC(C)(O)C(NC)C3O)C2O)O1` (stereo not drawn) [Pure drug, Gentamicin], where the note is “male, Wistar, plasma, iv, 2 mg”, the AUC(0-inf) stood at 203 µg·h/mL, the Cmax was determined as 8400 ng/mL, the Tmax came to 1 h and the volume of distribution (Vd) is 0.1 L/kg. Under “male, Wistar, plasma, iv, 2 mg”, this molecule gave a clearance of 5 mL/h/kg. Under “intravenous”, the “time up to which gentamicin was detectable in the plasma” value is “up to 6 h”.

By AUC(0-inf) is commonly meant total exposure, with the tail of the curve extrapolated. A low value points to low exposure. One may read the Cmax as the peak of the concentration-time curve. As usually defined, the Tmax is the time at which the peak concentration occurs. Usually Vd stands for a proportionality between amount in the body and measured concentration, not a real space. For orientation: clearance means the volume of plasma or blood freed of the substance per unit of time. Read a low clearance as a low capacity for elimination.
